In assay [1] the test system is mouse partial sciatic nerve ligation model. The experiment in a line: von Frey test in mouse partial sciatic nerve ligation model (Seltzer model). In kind it is in vivo, ICR mice. The following applies: for inhibition in vivo at 10 mg/kg / von Frey Total Score of 1 Hour after Oral Administration (Mean ± S.E.), Test Compound-Administered Group: dose 10 mg/kg oral; for von Frey Total Score of 1 Hour after Oral Administration (Mean ± S.E.), Test Compound-Administered Group: n = 5-6, 7 days after ligation. The protocol: As a reference example, the mouse partial sciatic nerve ligation model (Seltzer model), by which neuropathic pain can be evaluated, was used to evaluate the analgesic effect of Compound (I).
Mouse models of partial sciatic nerve ligation were prepared according to Seltzer's method (Malmberg et al., Pain, 1998, vol. 76, p. 215-222). Male ICR mice of 5 weeks old were anesthetized with Sodium pentobarbital (70 mg/kg, i.p.), and thereafter, the sciatic nerve at the femoral region of the right hind limb of each mouse was exposed, and the sciatic nerve was triply ligated tightly with silk suture of 8-0 (NATSUME SEISAKUSHO) under microscope so that only half thickness of the nerve was trapped in the ligature, which mice were used as a ligation group. The mice whose sciatic nerves were exposed but not ligated were used as a sham operation group.
Evaluation of neuropathic pain (hereinafter “von Frey test”) was carried out as follows. Mice were conditioned for at least 1 hour in an acryl cage for measurement (NATSUME SEISAKUSHO) placed on a wire net. Thereafter, using a filament (North Coast Medical, Inc. CA, USA) which exerted a pressure of 0.16 g, the mice were subjected to mechanical tactile stimulus by applying the filament to the plantar surface of both hindpaws 3 times, each for 3 seconds, with an interval of 3 seconds.
Seven days after the sciatic nerve ligation, test compounds were orally administered to the mice. Prior to the oral administration of the test compounds, the von Frey test was carried out to split the animals of the ligation group into vehicle groups and test compound-administered groups so that the sums of the total scores of the groups were equalized. The mice of the sham operation groups, the vehicle groups and the test compound-administered groups were subjected to the von Frey test 1 hour, 2 hours and 3 hours after oral administration of a vehicle or a test compound, and the obtained scores were used as an indicator of analgesic effect. As a vehicle of test compound solution or suspension, dimethyl sulfoxide (hereinafter “DMSO”):Tween80:distilled water (1:1:8), 27% hydroxypropyl-β-cyclodextrin (hereinafter “27% HP-β-CD”) or 0.5% MC was used.
For evaluation of drug efficacy, data were statistically processed by the unpaired multigroup t test (adjusted by Dunnett), taking the vehicle group of each measurement time as a control.

Assay [2] relates to rat diabetic neuropathic pain model. To be noted: Chen et al., 2009; cited from earlier work.
Assay [3] relates to patients with complex regional pain syndrome. To be noted: Sinia et al., Clin J Pain, 2007; cited from earlier work.
Assay [4] has as its system Alzheimer's disease model rats. The experiment in a line: Morris water maze test in Alzheimer's disease model rats (basal ganglia destroyed with ibotenic acid). The following applies: 30 mg/kg oral once per day from Day 0 after destruction treatment, not given just before trials; Day 10 to Day 12; compared to vehicle-administered group. In kind it is in vivo, Wistar rats.

In assay [5] the test system is rats with medial septal lesions. To be noted: 0.5 mg/kg; Ogura et al., 1998; cited from earlier work.
Assay [6] deals with rat neuropathic pain model. The following applies: Clayton et al., Anesthesiology, 2007; cited from earlier work.
[7] abbreviates: Mus musculus, po, 1 h, relative to vehicle and sham operation groups, read-out: Score Improvement.

Where a name gives a salt, the structure may show the parent alone.

In the case of `COc1ccc(-n2nc(C3(O)CCC(O)CC3)cc2-c2ccc(C)c(F)c2)cc1` (centres unmarked) [Compound 55], the inhibition in vivo at 3 mg/kg in assay [1] (Mus musculus, po, 1 h, dose 3 mg/kg oral, relative to vehicle and sham operation groups, read-out: Score Improvement) amounted to 93%.
On to `COc1ccc(-c2cc(C3(O)CCC(O)CC3)nn2-c2ccc(OC)cc2)cc1` (stereo not drawn) [Compound 8, 1-(1,5-bis(4-methoxyphenyl)-1H-pyrazol-3-yl)cyclohexan-cis-1,4-diol], for which the inhibition in vivo at 10 mg/kg in assay [1] (setting [7]) is 70%.
Consider `COc1ccc(-c2nc(C3(O)CCC(O)CC3)oc2-c2ccc(OC)cc2)cc1` (stereo not drawn) [Compound 43, 4-(4,5-bis(4-methoxyphenyl)oxazol-2-yl)cyclohexan-cis-1,4-diol], for which the inhibition in vivo at 10 mg/kg in assay [1] (setting [7]) was determined as 100%.
`COc1ccc(-n2nc(C3(O)CCC(O)CC3)cc2-c2ccc(C)nc2)cc1` (stereo not drawn) [Compound 15, 1-(1-(4-methoxyphenyl)-5-(6-methylpyridin-3-yl)-1H-pyrazol-3-yl)cyclohexan-cis-1,4-diol]: in assay [1] (setting [7]), the inhibition in vivo at 10 mg/kg is 84%. Moreover, in assay [1], the “von Frey Total Score of 1 Hour after Oral Administration (Mean ± S.E.), Test Compound-Administered Group” value was 1.0 ± 0.4.
For `COc1ccc(-n2nc(C3(O)CCC(O)CC3)cc2-c2ccc(C)cc2)cc1F` (centres unmarked) [Compound 54], in assay [1] (setting [7]), the inhibition in vivo at 10 mg/kg was found to be 83%.
On to `CC12CC3CC(C)(C1)CC(N)(C3)C2` [memantine], for which the analgesic effect result in assay [2] and in assay [3] was “exhibits an analgesic effect” each time.
On to `CCc1ccc(-c2cc(C3(O)CCC(O)CC3)nn2-c2ccc(OC)cc2)cc1` (centres unmarked) [Compound 48], for which the inhibition in vivo at 10 mg/kg in assay [1] (setting [7]) turned out to be 83%. The “von Frey Total Score of 1 Hour after Oral Administration (Mean ± S.E.), Test Compound-Administered Group” value in assay [1] came to 1.0 ± 0.5.
For the molecule `COc1ccc(-n2nc(C3(O)CCC(O)CC3)cc2-c2ccc(C)cc2)cc1` (single isomer, unassigned) [Compound 3, 1-(1-(4-methoxyphenyl)-5-(p-tolyl)-1H-pyrazol-3-yl)cyclohexan-cis-1,4-diol], the “Escape latency in Morris water maze” value in assay [4] was “statistically significantly shortened”.
Turning to `COc1ccc(-n2nc(C3(O)CCC(O)(C(F)(F)F)CC3)cc2-c2ccc(C)cc2)cc1` (stereo not drawn) [Compound 10, 1-(1-(4-methoxyphenyl)-5-(p-tolyl)-1H-pyrazol-3-yl)-4-(trifluoromethyl)cyclohexan-cis-1,4-diol], the inhibition in vivo at 1 mg/kg in assay [1] (Mus musculus, po, 1 h, dose 1 mg/kg oral, relative to vehicle and sham operation groups, read-out: Score Improvement) worked out at 78%.
For the molecule `COc1cc2c(cc1OC)C(=O)C(CC1CCN(Cc3ccccc3)CC1)C2` (centres unmarked) [donepezil hydrochloric acid salt], the “effectiveness in the Morris water maze test” value in assay [5] was “effective”.
For `COc1cc2c(cc1OC)C(=O)C(CC1CCN(Cc3ccccc3)CC1)C2` (centres unmarked) [donepezil], in assay [6], the analgesic effect entry is given as “exhibits an analgesic effect”.

These data come from patent US8598212B2, “Therapeutic agent and preventative agent for alzheimer's disease” (Toray Industries, Inc., priority 2010, dated 2013).
